{"source": "patent US12616204B2", "about": "“Use of cationic porphyrins as selective herbicide” (UNIVERSITE DE LIMOGES, priority 2021, dated 2026)", "key": {"Barley (Hordeum sativum) [1]": {"tested_on": "Barley (Hordeum sativum)", "test": "In vitro cultivation on Zn-TMPyP-rich medium, barley", "assay_type": "in vivo", "conditions": "3.5 μM Zn-TMPyP-rich medium", "protocol": "(§1) The sterilization of the seeds is carried out according to the following protocol. Surface sterilization is first performed with 70% (v/v) ethanol for 2 minutes at ambient temperature. The ethanol is removed and the seeds are immersed in 20% (v/v) sodium hypochlorite for 15-20 minutes and then thoroughly rinsed with sterile water. The barley caryopses are left in the water for at least one hour before cultivation.\n(§2) The germination medium for all of the seeds is Gamborg's synthetic medium, also referred to as B5, (Duchefa Biochemie, Haarlem, the Netherlands), supplemented with 2% sucrose (w/v) and solidified with 0.8% agar (Difco, Dallas, USA). The pH is adjusted to 5.8 with 1 M sodium hydroxide before autoclaving. After autoclaving (120° C., 20 minutes, 1 bar) and cooling of the medium in Petri dishes and/or jars, porphyrin is added at the desired concentration. After sterilization, the seeds are deposited on the solidified B5 medium containing or not containing the porphyrin, under a laminar flow hood. The Petri dishes and jars are placed in culture chambers (16 h photoperiod, 22° C., photon flux density ˜100 μmol·m^−2·s^−1 generated by cool daylight lamps (OSRAM Lumilux 24W)). The jars are used for the transfer of the seedlings and allow them to grow more appropriately. […]"}, "[2]": {"tested_on": "antioxidant machinery (total thiols, catalase, guaiacol peroxidase) of tomato seedlings", "test": "Total thiols, catalase and guaiacol peroxidase in tomato seedlings cultivated in vitro", "assay_type": "in vivo, Solanum lycopersicum", "conditions": "tomato seedlings cultivated in vitro on 3.5 μM Zn-TMPyP-rich medium, 1 month"}, "[3]": {"tested_on": "Millet Echinochloa frumentacea", "test": "Greenhouse foliar spraying test, millet", "conditions": "foliar spraying 50 μM Zn-TMPyP, two treatments 48 h apart, after one month and two months", "experimental": "(§6) The various seeds are cultivated in a greenhouse in commercial compost (universal compost, Fertiligene). The seeds were sown in the greenhouse under controlled temperature and humidity conditions (the temperature varies between 15° C. and 30° C. depending on the season, and the relative humidity varies from 50 to 70%).\n(§7) Two spot treatments (about 10 sprays each) spaced 48 h apart were carried out one week after germination. The first treatment was carried out when the seedlings were in the cotyledon stage, the second when the seedlings were in the first-leaf stage.\n(§8) The seedlings were monitored every 48 h. The control medium was sprayed with water at the same frequency."}, "[4]": {"tested_on": "plants of interest (tomato, barley, wheat, spinach, turnip, corn, onion, sunflower)", "test": "Example 4 greenhouse foliar spraying test, plants of interest", "assay_type": "in vivo", "conditions": "5 foliar sprayings 48 h apart, regardless of concentration (50, 75, 100 μM), after 6 weeks (10 for barley)", "protocol": "(§3) Additional tests in a greenhouse were carried out. […] The treatments started at the cotyledon stage. The harvesting was carried out 6 weeks after germination (and 10 weeks for barley)."}, "[5]": {"tested_on": "tomato seedlings (Solanum lycopersicum)", "conditions": "16-hour photoperiod, Guillaumot et al. 2016; cited from earlier work"}, "[6]": {"tested_on": "Common nettle Urtica dioica", "test": "In vitro cultivation on Zn-TMPyP-treated medium, nettle", "assay_type": "in vivo", "conditions": "medium with Zn-TMPyP 3.5 μM, after 18 days", "protocol": "as §1\n(§4) The germination medium for all of the seeds is Gamborg's synthetic medium, also referred to as B5, (Duchefa Biochemie, Haarlem, the Netherlands), supplemented with 2% sucrose (w/v) and solidified with 0.8% agar (Difco, Dallas, USA). The pH is adjusted to 5.8 with 1 M sodium hydroxide before autoclaving. After autoclaving (120° C., 20 minutes, 1 bar) and cooling of the medium in Petri dishes and/or jars, porphyrin is added at the desired concentration. After sterilization, the seeds are deposited on the solidified B5 medium containing or not containing the porphyrin, under a laminar flow hood. The Petri dishes and jars are placed in culture chambers (16 h photoperiod, 22° C., photon flux density ˜100 μmol·m^−2·s^−1 generated by cool daylight lamps (OSRAM Lumilux 24W)). The jars are used for the transfer of the seedlings and allow them to grow more appropriately."}, "Barley (Hordeum sativum) [7]": {"tested_on": "Barley (Hordeum sativum)", "test": "Greenhouse foliar spraying test, barley", "conditions": "foliar spraying 50 μM Zn-TMPyP, two treatments 48 h apart, after one month and two months", "experimental": "as §6, §7, §8"}, "Poppy (Papaver rhoeas) [8]": {"tested_on": "Poppy (Papaver rhoeas)", "test": "Greenhouse foliar spraying test, poppy", "conditions": "foliar spraying 50 μM Zn-TMPyP", "experimental": "as §6, §7, §8"}, "fishing worms (maggots)": {"tested_on": "fishing worms (maggots)", "test": "Non-toxicity to fishing worms (maggots), viability after spraying", "assay_type": "in vivo", "conditions": "for toxicity to fishing worms (maggots): summary statement", "protocol": "The maggots were placed in Petri dishes under a photoperiod (16 h) or under dark conditions in a phytotron (24° C.) for 24 h. […] The percentage viability was determined after 24 h."}, "[9]": {"tested_on": "Tomato Solanum lycopersicum var Marmande", "test": "In vitro cultivation on Zn-TMPyP-rich medium, tomato", "assay_type": "in vivo", "conditions": "3.5 μM Zn-TMPyP-rich medium, after 22 days, compared with control", "protocol": "as §1, §2"}, "[10]": {"tested_on": "Arabidopsis thaliana ws ecotype", "test": "In vitro cultivation on Zn-TMPyP-treated medium, Arabidopsis", "assay_type": "in vivo", "conditions": "medium with Zn-TMPyP 3.5 μM, after 1 month", "protocol": "as §1, §4"}, "[11]": {"tested_on": "adventitious plants (goosefoot, proso millet, rye-grass, dock, black nightshade, dandelion, chickweed)", "test": "Example 4 greenhouse foliar spraying test, adventitious plants", "assay_type": "in vivo", "conditions": "after 6 weeks", "protocol": "as §3"}, "[12]": {"tested_on": "antioxidant enzymes and molecules (total thiols, catalase, guaiacol peroxidase) of tomato seedlings", "test": "Total thiols, catalase and guaiacol peroxidase in greenhouse tomato seedlings after foliar application", "conditions": "foliar application of 50 μM Zn-TMPyP, two months", "experimental": "Seedlings (roots and aerial parts separated before freezing) are ground in liquid nitrogen. The powder is transferred into an Eppendorf tube and weighed (between 200 and 100 mg per extraction). The extract is acidified with 0.2 N vortexed HCl and centrifuged (13 000 g 10 min 4° C.). 500 μL of the supernatant is neutralized with 400 μL of NaOH (0.2 N) and 50 μL of Na2HPO4. Then, 700 μL of 0.12 M Na2HPO4, 6 mM EDTA and 6 mM DTNB are added to 200 μL of the neutralized solution. After establishing a glutathione range, the total thiols contained in the samples are determined by UV-vis spectrometry at 412 nm and related to the fresh weight.\nSeedlings (roots and aerial parts separated before freezing) are ground in liquid nitrogen. […]\nCatalase activity is quantifiable by measuring the disappearance of H2O2 by disproportionation into H2O and O2. […] The kinetics of the disappearance of H2O2 are measured for 200 seconds every 20 seconds at 240 nm. The activity is calculated using the molar extinction coefficient of H2O2 which is 43.6 mM^−1·cm^−1.\nIts activity is measured by the oxidation of guaiacol in the presence of H2O2. […] The kinetics of the appearance of the oxidized guaiacol are measured for 120 seconds every 10 seconds at 436 nm. The activity is calculated using the molar extinction coefficient of H2O2 which is 25.5 mM^−1·cm^−1."}, "[13]": {"test": "Photostability/photodegradation test in water (Soret band, UV-visible spectrometry)", "conditions": "solution without surfactant, photoperiod 16 h light/8 h dark", "text": "Monitoring the intensity of the Soret band as a function of the irradiation time makes it possible to calculate the percentage of degraded porphyrins."}, "Poppy (Papaver rhoeas) [14]": {"tested_on": "Poppy (Papaver rhoeas)", "test": "In vitro cultivation on Zn-TMPyP-treated medium, poppy", "assay_type": "in vivo", "conditions": "3.5 μM Zn-TMPyP, after 6 weeks", "protocol": "as §1, §4"}, "[15]": {"tested_on": "Tomato Solanum lycopersicum var Marmande", "test": "Greenhouse foliar spraying test, tomato", "conditions": "foliar spraying 50 μM Zn-TMPyP, two treatments 48 h apart, after one month and two months", "experimental": "as §6, §7, §8"}, "[16]": {"tested_on": "Grapevine (Vitis vinifera) cultivar: Sauvignon (clone 379)", "test": "In vitro cultivation on Zn-TMPyP-rich medium, grapevine explants", "assay_type": "in vivo", "conditions": "3.5 μM Zn-TMPyP-rich medium, two months of cultivation", "protocol": "(§5) Explants are propagated in a sterile manner from 1-month old seedlings for potato and two-month old seedlings for grapevines. The potato explants are propagated on a Murashige and Skoog synthetic medium supplemented with 2% sucrose and myo-inositol ((100 mg/L), pH 5.8. The grapevine explants are cultivated on ½ Chee and Pool medium supplemented with 2% sucrose, pH 5.9. The media are solidified with 0.8% Sobigel. Both media are supplied by Duchefa Biochemie, Haarlem, the Netherlands. The media are autoclaved as described above for the B5 medium. The grapevine explants are placed in a culture chamber at 25° C. and those of potato at 23° C., the same photoperiod and light intensity as for the seed germinations."}, "[17]": {"tested_on": "Tobacco (Nicotiana benthamiana)", "test": "In vitro cultivation on Zn-TMPyP-rich medium, tobacco", "assay_type": "in vivo", "conditions": "3.5 μM Zn-TMPyP-rich medium, one-and-a-half months of cultivation", "protocol": "as §1, §4"}, "[18]": {"tested_on": "Potato (Solanum tuberosum) cultivar: Coquine", "test": "In vitro cultivation on Zn-TMPyP-treated medium, potato explants", "assay_type": "in vivo", "conditions": "treated medium (3.5 μM Zn-TMPyP) compared to control", "protocol": "as §5"}, "[19]": {"tested_on": "Spinach (Spinacia oleracea)", "test": "Example 4 greenhouse foliar spraying test, spinach", "assay_type": "in vivo", "conditions": "5 foliar sprayings 48 h apart, 50, 75, 100 μM, after 6 weeks", "protocol": "as §3"}}, "note": "Entries after “also recorded” stand apart in the source; their conditions may differ."}
{"substance": "zinc tetra(N-methylpyridyl)porphyrin tetrachloride [Zn-TMPyP]", "values": [{"measurement": "appearance of barley leaves", "setting": "Barley (Hordeum sativum) [1]", "result": "yellowing followed by wilting"}, {"measurement": "growth of the barley", "setting": "Barley (Hordeum sativum) [1]; after one month of cultivation", "result": "adversely impacted"}, {"measurement": "antioxidant machinery (total thiols, catalase, guaiacol peroxidase)", "setting": "[2]", "result": "significantly inhibited"}, {"measurement": "herbicidal effect on millet", "setting": "[3]", "result": "completely dead"}, {"measurement": "growth of the plants of interest", "setting": "[4]", "result": "grow perfectly"}, {"measurement": "tomato seedling growth in vitro", "setting": "[5]", "result": "significantly altered"}, {"measurement": "growth of nettle", "setting": "[6]", "result": "very significant inhibition"}, {"measurement": "growth of barley (plant of interest)", "setting": "Barley (Hordeum sativum) [7]", "result": "grow perfectly"}, {"measurement": "time to first symptoms after the first treatment", "setting": "Poppy (Papaver rhoeas) [8]; adventitious plants (poppy, millet)", "result": 24, "unit": "h"}, {"measurement": "time until the poppy is destroyed after the first treatment", "setting": "Poppy (Papaver rhoeas) [8]; first 10 sprayings", "result": 48, "unit": "h"}, {"measurement": "herbicidal effect on poppy", "setting": "Poppy (Papaver rhoeas) [8]; two treatments 48 h apart, after one month and two months", "result": "completely dead; also recorded: completely destroyed"}, {"measurement": "effect on viability of maggots (fishing worms)", "setting": "fishing worms (maggots); spraying of 50 μM Zn-TMPyP, 24 h, in the presence and in the absence of light", "result": "harmlessness"}, {"measurement": "toxicity to fishing worms (maggots)", "setting": "fishing worms (maggots)", "result": "non-toxicity"}, {"measurement": "development of tomato", "setting": "[9]", "result": "significantly inhibited"}, {"measurement": "growth of Arabidopsis", "setting": "[10]", "result": "very significant inhibition"}, {"measurement": "growth of the adventitious plants", "setting": "[11]; 5 foliar sprayings 48 h apart, C1=50, C2=75, C3=100 μM, dose-dependent or at a specific dose", "result": "drastically adversely impacts"}, {"measurement": "destruction of the adventitious plants", "setting": "[11]; 5 foliar sprayings, certain concentrations (of 50, 75, 100 μM)", "result": "completely destroy"}, {"measurement": "antioxidant enzymes and molecules", "setting": "[12]", "result": "remain constant"}, {"measurement": "thiols in the roots", "setting": "[12]", "result": "increase"}, {"measurement": "days of photoperiod after which the solution disappears", "setting": "[13]", "result": 29, "unit": "days"}, {"measurement": "response of poppy seedlings", "setting": "Poppy (Papaver rhoeas) [14]", "result": "remarkable adverse impact and inhibition"}, {"measurement": "growth of tomato (plant of interest)", "setting": "[15]", "result": "grow perfectly"}, {"measurement": "development of grapevine seedlings", "setting": "[16]", "result": "considerable inhibition"}, {"measurement": "development of tobacco seedlings", "setting": "[17]", "result": "considerable inhibition"}, {"measurement": "growth of potato at the stem and roots", "setting": "[18]", "result": "slight growth retardation"}, {"measurement": "growth of spinach", "setting": "[19]", "result": "slightly affected"}]}
{"substance": "tetra(N-methylpyridyl)porphyrin tetrachloride [TMPyP]", "values": [{"measurement": "tomato seedling growth in vitro", "setting": "[5]", "result": "significantly altered"}, {"measurement": "toxicity to fishing worms (maggots)", "setting": "fishing worms (maggots)", "result": "non-toxicity"}]}
